How the values were obtained:
[1] = Cytotoxicity against CHOK1 cells after 24 hrs by MTT assay; format: cell-based; settings: Cricetulus griseus, CHO-K1, 24 h
Aspergillus fumigatus [2] = assay: Antimicrobial activity against Aspergillus fumigatus 231 after 48 hrs by spectrophotometry; format: functional; settings: Aspergillus fumigatus, 231, 48 h
Staphylococcus aureus [3] = assay: Antimicrobial activity against clinical isolate methicillin-resistant Staphylococcus aureus H 599608 after 48 hrs; format: functional; settings: H 599608, 48 h
Staphylococcus aureus [4] = assay: Antimicrobial activity against clinical isolate methicillin-resistant Staphylococcus aureus H 599608 after 24 hrs; format: functional; settings: H 599608, 24 h
Pseudomonas aeruginosa [5] = assay: Antimicrobial activity against clinical isolate Pseudomonas aeruginosa CCM 1961 after 72 hrs; format: functional; settings: CCM 1961, 72 h
Nakaseomyces glabratus [6] = assay: Antimicrobial activity against Candida glabrata 20/I after 48 hrs by spectrophotometry; format: functional
[7] = test system: Trichophyton mentagrophytes; assay: Antimicrobial activity against Trichophyton mentagrophytes 445 after 72 hrs by spectrophotometry; format: functional; settings: Trichophyton mentagrophytes, 445, 72 h
[8] = test system: Trichophyton mentagrophytes; assay: Antimicrobial activity against Trichophyton mentagrophytes 445 after 120 hrs by spectrophotometry; format: functional; settings: Trichophyton mentagrophytes, 445, 120 h
Lichtheimia corymbifera [9] = assay: Antimicrobial activity against Absidia corymbifera 272 after 48 hrs by spectrophotometry; format: functional; settings: Lichtheimia corymbifera, 272, 48 h
Pseudomonas aeruginosa [10] = assay: Antimicrobial activity against clinical isolate Pseudomonas aeruginosa CCM 1961 after 120 hrs; format: functional; settings: CCM 1961, 120 h
[11] = test system: Staphylococcus epidermidis; assay: Antimicrobial activity against clinical isolate Staphylococcus epidermidis H 696608 after 24 hrs; format: functional; settings: H 696608, 24 h
Staphylococcus aureus [12] = assay: Antimicrobial activity against clinical isolate Staphylococcus aureus CCM 451608 after 24 hrs; format: functional; settings: CCM 451608, 24 h
[13] = test system: Staphylococcus epidermidis; assay: Antimicrobial activity against clinical isolate Staphylococcus epidermidis H 696608 after 48 hrs; format: functional; settings: H 696608, 48 h
Klebsiella pneumoniae [14] = assay: Antimicrobial activity against clinical isolate ESBL-Klebsiella pneumoniae J 1436808 after 24 hrs; format: functional; settings: J 1436808, 24 h
Candida albicans [15] = assay: Antimicrobial activity against Candida albicans ATCC 44859 after 24 hrs by spectrophotometry; format: functional; settings: ATCC 44859, 24 h
Escherichia coli [16] = assay: Antimicrobial activity against clinical isolate Escherichia coli CCM 4517 after 48 hrs; format: functional; settings: CCM 4517, 48 h
Nakaseomyces glabratus [17] = assay: Antimicrobial activity against Candida glabrata 20/I after 24 hrs by spectrophotometry; format: functional
Candida tropicalis [18] = assay: Antimicrobial activity against Candida tropicalis 156 after 24 hrs by spectrophotometry; format: functional; settings: Candida tropicalis, 156, 24 h
Klebsiella pneumoniae [19] = assay: Antimicrobial activity against clinical isolate Klebsiella pneumoniae D 1175008 after 48 hrs; format: functional; settings: D 1175008, 48 h
Aspergillus fumigatus [20] = assay: Antimicrobial activity against Aspergillus fumigatus 231 after 24 hrs by spectrophotometry; format: functional; settings: Aspergillus fumigatus, 231, 24 h
Trichosporon asahii [21] = assay: Antimicrobial activity against Trichosporon asahii 1188 after 24 hrs by spectrophotometry; format: functional; settings: Trichosporon asahii, 1188, 24 h
Klebsiella pneumoniae [22] = assay: Antimicrobial activity against clinical isolate ESBL-Klebsiella pneumoniae J 1436808 after 48 hrs; format: functional; settings: J 1436808, 48 h
Pichia kudriavzevii [23] = assay: Antimicrobial activity against Candida krusei E28 after 24 hrs by spectrophotometry; format: functional; settings: E28, 24 h
Enterococcus sp. [24] = assay: Antimicrobial activity against clinical isolate Enterococcus sp. J 1436508 after 24 hrs; format: functional; settings: J 1436508, 24 h
Lichtheimia corymbifera [25] = assay: Antimicrobial activity against Absidia corymbifera 272 after 24 hrs by spectrophotometry; format: functional; settings: Lichtheimia corymbifera, 272, 24 h
Trichosporon asahii [26] = assay: Antimicrobial activity against Trichosporon asahii 1188 after 48 hrs by spectrophotometry; format: functional; settings: Trichosporon asahii, 1188, 48 h
Escherichia coli [27] = assay: Antimicrobial activity against clinical isolate Escherichia coli CCM 4517 after 24 hrs; format: functional; settings: CCM 4517, 24 h
Enterococcus sp. [28] = assay: Antimicrobial activity against clinical isolate Enterococcus sp. J 1436508 after 48 hrs; format: functional; settings: J 1436508, 48 h
Klebsiella pneumoniae [29] = assay: Antimicrobial activity against clinical isolate Klebsiella pneumoniae D 1175008 after 24 hrs; format: functional; settings: D 1175008, 24 h
Candida tropicalis [30] = assay: Antimicrobial activity against Candida tropicalis 156 after 48 hrs by spectrophotometry; format: functional; settings: Candida tropicalis, 156, 48 h
Candida albicans [31] = assay: Antimicrobial activity against Candida albicans ATCC 44859 after 48 hrs by spectrophotometry; format: functional; settings: ATCC 44859, 48 h
Staphylococcus aureus [32] = assay: Antimicrobial activity against clinical isolate Staphylococcus aureus CCM 451608 after 48 hrs; format: functional; settings: CCM 451608, 48 h
Pichia kudriavzevii [33] = assay: Antimicrobial activity against Candida krusei E28 after 48 hrs by spectrophotometry; format: functional; settings: E28, 48 h

Q: Which IC50 [1] does the source give for `CCCCCCCCCCCCCCCCCC[n+]1ccc2c(O)cccc2c1` here?
A: 7 µM

Q: Which MFC (Aspergillus fumigatus [2]) does the source give for `CCCCCCCCCCCCCCCC[n+]1ccc2c(O)cccc2c1` here?
A: > 500 µM

Q: What about the MIC (Aspergillus fumigatus [2]) of the same compound?
A: > 500 µM

Q: And the MBC (Staphylococcus aureus [3])?
A: 0.5 µM

Q: And the MIC (Staphylococcus aureus [3])?
A: 0.5 µM

Q: What about the MIC (Staphylococcus aureus [4]) of the same compound?
A: 0.5 µM

Q: What about the MIC (Pseudomonas aeruginosa [5]) of the same compound?
A: > 500 µM

Q: What about the MFC (Nakaseomyces glabratus [6]) of the same compound?
A: 3.9 µM

Q: And the MIC (Nakaseomyces glabratus [6])?
A: 3.9 µM

Q: What about the MIC [7] of the same compound?
A: 16 µM

Q: And the MFC [8]?
A: 125 µM

Q: And the MIC [8]?
A: 16 µM

Q: And the MFC (Lichtheimia corymbifera [9])?
A: > 500 µM

Q: What about the MIC (Lichtheimia corymbifera [9]) of the same compound?
A: > 500 µM

Q: And the MBC (Pseudomonas aeruginosa [10])?
A: > 500 µM

Q: What about the MIC (Pseudomonas aeruginosa [10]) of the same compound?
A: > 500 µM

Q: And the MIC [11]?
A: 63 µM

Q: What about the MIC (Staphylococcus aureus [12]) of the same compound?
A: 0.5 µM

Q: What about the MBC [13] of the same compound?
A: 63 µM

Q: And the MIC [13]?
A: 63 µM

Q: And the MIC (Klebsiella pneumoniae [14])?
A: > 500 µM

Q: And the IC50 [1]?
A: 16 µM

Q: And the MIC (Candida albicans [15])?
A: 16 µM

Q: And the MBC (Escherichia coli [16])?
A: > 500 µM

Q: And the MIC (Escherichia coli [16])?
A: > 500 µM

Q: And the MIC (Nakaseomyces glabratus [17])?
A: 3.9 µM

Q: And the MIC (Candida tropicalis [18])?
A: 7.8 µM

Q: And the MBC (Klebsiella pneumoniae [19])?
A: > 500 µM

Q: And the MIC (Klebsiella pneumoniae [19])?
A: > 500 µM

Q: And the MIC (Aspergillus fumigatus [20])?
A: > 500 µM

Q: What about the MIC (Trichosporon asahii [21]) of the same compound?
A: 63 µM

Q: And the MBC (Klebsiella pneumoniae [22])?
A: > 500 µM

Q: And the MIC (Klebsiella pneumoniae [22])?
A: 500 µM

Q: What about the MIC (Pichia kudriavzevii [23]) of the same compound?
A: 7.8 µM

Q: What about the MIC (Enterococcus sp. [24]) of the same compound?
A: 63 µM

Q: And the MIC (Lichtheimia corymbifera [25])?
A: > 500 µM

Q: And the MFC (Trichosporon asahii [26])?
A: 125 µM

Q: And the MIC (Trichosporon asahii [26])?
A: 63 µM

Q: What about the MIC (Escherichia coli [27]) of the same compound?
A: > 500 µM

Q: What about the MBC (Enterococcus sp. [28]) of the same compound?
A: 63 µM

Q: What about the MIC (Enterococcus sp. [28]) of the same compound?
A: 63 µM

Q: And the MIC (Klebsiella pneumoniae [29])?
A: > 500 µM

Q: What about the MFC (Candida tropicalis [30]) of the same compound?
A: 7.8 µM

Q: What about the MIC (Candida tropicalis [30]) of the same compound?
A: 7.8 µM

Q: And the MFC (Candida albicans [31])?
A: 125 µM

Q: What about the MIC (Candida albicans [31]) of the same compound?
A: 16 µM

Q: What about the MBC (Staphylococcus aureus [32]) of the same compound?
A: 0.5 µM

Q: What about the MIC (Staphylococcus aureus [32]) of the same compound?
A: 0.5 µM

Q: And the MFC (Pichia kudriavzevii [33])?
A: 7.8 µM

Q: And the MIC (Pichia kudriavzevii [33])?
A: 7.8 µM

Q: With `CCCCCCCCCCCCCCCC[n+]1ccc2ccccc2c1` as the compound, how does the MFC (Aspergillus fumigatus [2]) read?
A: 3.9 µM

Q: What about the MIC (Aspergillus fumigatus [2]) of the same compound?
A: 3.9 µM

Q: What about the MBC (Staphylococcus aureus [3]) of the same compound?
A: 2 µM

Q: And the MIC (Staphylococcus aureus [3])?
A: 1 µM

Q: And the MIC (Staphylococcus aureus [4])?
A: 1 µM

Q: And the MIC (Pseudomonas aeruginosa [5])?
A: 125 µM

Q: And the MFC (Nakaseomyces glabratus [6])?
A: 2 µM

Q: What about the MIC (Nakaseomyces glabratus [6]) of the same compound?
A: 2 µM

Q: What about the MIC [7] of the same compound?
A: 2 µM

Q: What about the MFC [8] of the same compound?
A: 7.8 µM

Q: And the MIC [8]?
A: 2 µM

Q: What about the MFC (Lichtheimia corymbifera [9]) of the same compound?
A: 125 µM

Q: What about the MIC (Lichtheimia corymbifera [9]) of the same compound?
A: 16 µM

Q: What about the MBC (Pseudomonas aeruginosa [10]) of the same compound?
A: 125 µM

Q: What about the MIC (Pseudomonas aeruginosa [10]) of the same compound?
A: 125 µM

Q: What about the MIC [11] of the same compound?
A: 0.5 µM

Q: And the MIC (Staphylococcus aureus [12])?
A: 1 µM

Q: And the MBC [13]?
A: 2 µM

Q: What about the MIC [13] of the same compound?
A: 0.5 µM

Q: What about the MIC (Klebsiella pneumoniae [14]) of the same compound?
A: 7.8 µM

Q: And the IC50 [1]?
A: 7 µM

Q: What about the MIC (Candida albicans [15]) of the same compound?
A: 2 µM

Q: And the MBC (Escherichia coli [16])?
A: 3.9 µM

Q: What about the MIC (Escherichia coli [16]) of the same compound?
A: 3.9 µM

Q: And the MIC (Nakaseomyces glabratus [17])?
A: 2 µM

Q: And the MIC (Candida tropicalis [18])?
A: 2 µM

Q: What about the MBC (Klebsiella pneumoniae [19]) of the same compound?
A: 7.8 µM

Q: What about the MIC (Klebsiella pneumoniae [19]) of the same compound?
A: 3.9 µM

Q: What about the MIC (Aspergillus fumigatus [20]) of the same compound?
A: 3.9 µM

Q: What about the MIC (Trichosporon asahii [21]) of the same compound?
A: 3.9 µM

Q: What about the MBC (Klebsiella pneumoniae [22]) of the same compound?
A: 31 µM

Q: What about the MIC (Klebsiella pneumoniae [22]) of the same compound?
A: 7.8 µM

Q: What about the MIC (Pichia kudriavzevii [23]) of the same compound?
A: 2 µM

Q: What about the MIC (Enterococcus sp. [24]) of the same compound?
A: 1 µM

Q: What about the MIC (Lichtheimia corymbifera [25]) of the same compound?
A: 16 µM

Q: What about the MFC (Trichosporon asahii [26]) of the same compound?
A: 3.9 µM

Q: And the MIC (Trichosporon asahii [26])?
A: 3.9 µM

Q: And the MIC (Escherichia coli [27])?
A: 3.9 µM

Q: And the MBC (Enterococcus sp. [28])?
A: 3.9 µM

Q: And the MIC (Enterococcus sp. [28])?
A: 1 µM

Q: And the MIC (Klebsiella pneumoniae [29])?
A: 3.9 µM

Q: And the MFC (Candida tropicalis [30])?
A: 2 µM

Q: What about the MIC (Candida tropicalis [30]) of the same compound?
A: 2 µM

Q: And the MFC (Candida albicans [31])?
A: 2 µM

Q: And the MIC (Candida albicans [31])?
A: 2 µM

Q: And the MBC (Staphylococcus aureus [32])?
A: 2 µM

Q: What about the MIC (Staphylococcus aureus [32]) of the same compound?
A: 1 µM

Q: What about the MFC (Pichia kudriavzevii [33]) of the same compound?
A: 2 µM

Q: And the MIC (Pichia kudriavzevii [33])?
A: 2 µM

Source: ChEMBL document CHEMBL3751693, “Synthesis, antimicrobial evaluation and molecular modeling of 5-hydroxyisoquinolinium salt series; the effect of the hydroxyl moiety” (Bioorg Med Chem, 2016)
